Assay results: publication PMC4467461, “Small-molecule activation of SERCA2a SUMOylation for the treatment of heart failure” (Nature Communications, 2015)

Tested on: pressure overload-induced mouse model of HF (TAC)
Assay: Invasive P–V loop haemodynamics in TAC heart failure mice
Type: in vivo
Protocol: B6C3F1 mice were acquired from Jackson Laboratories. Mice underwent TAC using a supraclavicular construction model as described. TAC or sham surgery was performed in 8∼10-week-old male mice (25∼30 g). Mice were anaesthetized with intraperitoneal ketamine (95 mg kg^−1) and xylaxine (5 mg kg^−1), and ventilated with a tidal volume of 0.1 ml and a respiratory rate of 110 breaths per minute (Harvard Apparatus, MA, USA). A 2- to 3-mm longitudinal cut was made in the proximal portion of the sternum, allowing visualization of the aortic arch. The transverse aortic arch was ligated between the innominate and left common carotid arteries with an overlaying 27-gauge needle. The needle was immediately removed, leaving a discrete region of constriction. Animal sham group underwent a similar procedure without ligation. Only animals with fractional shortening < 50% were determined as being in HF and suitable for further study.
One day after echocardiography, we performed in-vivo haemodynamics. The mice were anaesthetized with an intraperitoneal injection mixture of urethane (1 mg g^−1), etomidate (10 μg g^−1) and morphine (1 μg g^−1), and were then intubated via a tracheotomy and mechanically ventilated at 7 μl g^−1 tidal volume and 120 respirations per minute. A small incision was made in the apex and a French Millar cathether connected a high-fidelity pressure transducer (Scisense, London, ON, Canada) inserted into the LV. Haemodynamic recordings were performed after 5∼10 min of stable HR. The rate of pressure rise (+dP/dt) and maximal pressure, the time constant of isovolumic relaxation and HR were recorded and analysed. To determine the relative effects of the admittance and conductance techniques to contractility change induced by N106 compound infusion, whole haemodynamic function was recorded at both baseline and after administration of N106 compound through the external jugular vein. N106 compound was solubilized in 10% DMSO (Sigma-Aldrich), 10% Tween-80 (Sigma-Aldrich) and saline for in-vivo experiments. N106 or vehicle solutions were continuously infused through the external jugular vein at a rate of 50 μl min^−1 for 2 min in each dose. Whole haemodynamic functions of increasing dose of N106 of each mouse were recorded for ∼4 h. Each dose of N106 solution was infused after back to baseline of heart function.

What does the source list for `COc1ccc(-c2nnc(Nc3nc4c(OC)cccc4s3)o2)cc1` [Compound N106, N-(4-methoxybenzo[d]thiazol-2-yl)-5-(4-methoxyphenyl)-1,3,4-oxadiazol-2-amine]?
+dP/dtmax (0.1 mg kg^−1 infusion): 4803.33±91.78 mm Hg s^−1; HR (0.1 mg kg^−1 infusion): 417.11±4.54 bpm; Pmax (0.1 mg kg^−1 infusion): 115.11±1.27 mm Hg; τ, time constant of isovolumetric relaxation (0.1 mg kg^−1 infusion): 7.50 ± 0.15 ms; ESPVR slope (0.1 mg kg^−1 infusion via jugular vein): 9.04±1.20 mm Hg μl^−1; +dP/dtmax (1 mg kg^−1 infusion): 5448.83±147.09 mm Hg s^−1; ESPVR slope (1 mg kg^−1 infusion): 11.26±1.00 mm Hg μl^−1; HR (1 mg kg^−1 infusion): 422.33±3.79 bpm; Pmax (1 mg kg^−1 infusion): 123.66±5.28 mm Hg; τ, time constant of isovolumetric relaxation (1 mg kg^−1 infusion): 6.40 ± 0.15 ms; +dP/dtmax (10 mg kg^−1 infusion): 6229.41±103.23 mm Hg s^−1; ESPVR slope (10 mg kg^−1 infusion): 20.3±0.41 mm Hg μl^−1; HR (10 mg kg^−1 infusion): 455.08±5.62 bpm; Pmax (10 mg kg^−1 infusion): 124.50±4.26 mm Hg; τ, time constant of isovolumetric relaxation (10 mg kg^−1 infusion): 6.27 ± 0.13 ms
